Several values for one entry are separate records, joined by “and”; a condition that tells them apart may be missing. Equal entries are not always repeated.
Settings: Crystal, Torsion effusion method

[F][Pb][F] [lead(II) fluoride]
Settings | vapor or sublimation pressure
793 K | 0.000361 kPa
798 K | 0.000411 kPa
803 K | 0.000411 kPa
808 K | 0.000454 kPa
810 K | 0.000454 kPa
811 K | 0.000487 kPa
816 K | 0.000522 kPa
818 K | 0.000554 kPa
820 K | 0.000554 kPa
824 K | 0.000613 kPa
825 K | 0.000613 kPa
827 K | 0.000613 kPa
830 K | 0.000638 kPa
833 K | 0.000664 kPa
835 K | 0.000705 kPa
837 K | 0.000748 kPa
840 K | 0.000771 kPa
841 K | 0.000748 kPa
845 K | 0.000861 kPa and 0.000827 kPa
846 K | 0.000827 kPa
852 K | 0.000951 kPa
854 K | 0.00098 kPa
856 K | 0.00101 kPa
858 K | 0.00098 kPa
859 K | 0.00098 kPa
863 K | 0.001116 kPa
867 K | 0.001185 kPa and 0.001116 kPa
868 K | 0.001234 kPa
873 K | 0.001323 kPa and 0.001284 kPa
875 K | 0.001323 kPa
876 K | 0.001284 kPa
878 K | 0.001391 kPa
882 K | 0.001507 kPa
883 K | 0.001477 kPa
884 K | 0.001419 kPa
886 K | 0.001507 kPa
890 K | 0.001632 kPa
891 K | 0.001682 kPa
895 K | 0.001716 kPa
899 K | 0.00184 kPa
900 K | 0.001896 kPa
903 K | 0.001916 kPa
904 K | 0.001916 kPa
905 K | 0.001896 kPa
910 K | 0.002138 kPa and 0.002117 kPa
912 K | 0.002075 kPa
913 K | 0.002096 kPa
914 K | 0.002203 kPa
919 K | 0.002387 kPa
921 K | 0.002411 kPa
923 K | 0.002387 kPa
928 K | 0.002638 kPa
931 K | 0.002664 kPa
933 K | 0.002746 kPa
934 K | 0.002801 kPa
948 K | 0.003456 kPa
951 K | 0.003669 kPa

[F][Pb]([F])([F])[F] [lead(IV) fluoride]
Settings | vapor or sublimation pressure [kPa]
603 K | 0.000566
612 K | 0.000677
622 K | 0.000844
628 K | 0.000844
631 K | 0.00097
634 K | 0.000942
635 K | 0.001062
638 K | 0.001116
639 K | 0.001116
644 K | 0.001259
645 K | 0.001139
647 K | 0.001209
648 K | 0.001336
653 K | 0.001297
654 K | 0.001492
657 K | 0.0016
658 K | 0.001448
663 K | 0.001584
664 K | 0.001751
666 K | 0.00184
668 K | 0.001751
669 K | 0.001896
670 K | 0.001974
673 K | 0.001878
675 K | 0.002096
676 K | 0.001974
682 K | 0.00234
684 K | 0.002203
